Results published in US5169833A, “Substituted cyclic pentapeptides” (G. D. Searle & Co., priority 1991, dated 1992).
Structures can show the parent of a compound that is named as a salt.

Assays:
CD Charles River mice = test: Writhing Assay (PBQ-induced writhing); assay type: in vivo; settings: mouse; for Writhing Assay, number of mice out of ten in which peptide was active, Intragastric: i.g., 15 min before PBQ; for Writhing Assay, number of mice out of ten in which peptide was active, Intragastric / Writhing Assay, number of mice out of ten in which peptide was active, Subcutaneous: 10 mpk screening dose; for Writhing Assay ED50 value, Subcutaneous / Writhing Assay, number of mice out of ten in which peptide was active, Subcutaneous: s.c.; for Writhing Assay ED50 value, Subcutaneous: 25 min before PBQ i.p.
From the text: The "Writhing Assay" is one of the most widely-used experimental procedures for measuring the analgesic activity of different narcotic and nonnarcotic analgesic agents, and involves the continuous, chemically-induced pain of visceral origin to an animal, such as a mouse or rat. [Gyires et al., Arch. int. Pharmacodyn, 267, 131-140 (1984); C. Vander Wende et al., Fed. Proc., 15, 494 (1956); Koster et al., Fed. Proc., 18, 412 (1959); and Witken et al., J. Pharmacol. Exp. Ther., 133, 400-408 (1961).] Chemicals Which may be used to induce this pain include phenylbenzoquinone (PBQ) and acetic acid. As a result of the chemical irritation to the animal, a characteristic stretching and writhing of the animal (dorsiflexion of the animal's back, extension of its hindlimbs and the strong contraction of its abdominal musculature) will generally occur. […] Drugs which reduce the number of writhes of the animal appear to restore the normal nociceptive threshold of the animal.
This assay was conducted generally in the manner described by R. I. Taber, "Predictive Value of Analgesic Assays in Mice and Rats," Advances in Biochemical Psychopharmacology, 8, 191 (1974).
Two hundred CD Charles River mice, weighing 20 to 30 grams were used in this assay.
Twenty-five minutes after subcutaneous administration, and fifteen minutes after intragastric administration, to the mice of 10 mg per kilogram (mpk) of body weight of either a Test Pentapeptide or the Mosberg Pentapeptide, 0.1 ml per 10 g of body weight of a 0.025% w/v solution of PBQ was injected intraperitoneally into each mouse. Some mice were given saline in place of a Test Pentapeptide, or the Mosberg Pentapeptide, and were used as a control group.
Five minutes later, each mouse was individually placed into a glass beaker for observation, and the number of writhes occurring during the following ten-minute period was counted.
A pentapeptide compound was considered to be "active" (to have produced analgesia in a mouse) if, after the administration of 10 mg per kilogram (mpk) of body weight of the compound to the mouse, the number of writhes elicited by a mouse injected with PBQ was equal to, or less than, one-half the median number of writhes recorded for the saline-treated control group of mice that day, as described by R. I. Taber, supra.
The standard initial screening dose of a test compound employed in this assay was 10 mpk […] for both routes of administration. […] A maximum likelihood function was used to determine the ED50 value. (The slopes of the dose-response curves for all test compounds analyzed were compared as described by Tallarida and Murray, Manual of Pharmacologic Calculations, Page 11 (Springer Verlag, New York, 1981)).

δ opioid receptors = δ opioid receptors (Rattus norvegicus, UniProt P33533); test: Opiate Binding Assay, δ (3[H]-DSLET displacement)
Sequence of δ opioid receptors (P33533 whole entry): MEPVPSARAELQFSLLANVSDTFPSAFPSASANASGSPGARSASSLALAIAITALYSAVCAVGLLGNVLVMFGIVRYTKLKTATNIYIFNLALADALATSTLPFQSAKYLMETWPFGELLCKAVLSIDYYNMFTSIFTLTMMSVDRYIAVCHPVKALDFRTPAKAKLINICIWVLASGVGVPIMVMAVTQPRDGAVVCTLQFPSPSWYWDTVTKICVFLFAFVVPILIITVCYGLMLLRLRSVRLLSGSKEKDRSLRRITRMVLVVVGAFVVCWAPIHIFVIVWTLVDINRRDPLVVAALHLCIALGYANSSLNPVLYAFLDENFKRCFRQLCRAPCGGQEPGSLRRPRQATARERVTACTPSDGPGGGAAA

μ opioid receptors = μ opioid receptors (Rattus norvegicus, UniProt P33535); test: Opiate Binding Assay, μ (3[H]-DAMPGO displacement)
Sequence of μ opioid receptors (P33535 whole entry): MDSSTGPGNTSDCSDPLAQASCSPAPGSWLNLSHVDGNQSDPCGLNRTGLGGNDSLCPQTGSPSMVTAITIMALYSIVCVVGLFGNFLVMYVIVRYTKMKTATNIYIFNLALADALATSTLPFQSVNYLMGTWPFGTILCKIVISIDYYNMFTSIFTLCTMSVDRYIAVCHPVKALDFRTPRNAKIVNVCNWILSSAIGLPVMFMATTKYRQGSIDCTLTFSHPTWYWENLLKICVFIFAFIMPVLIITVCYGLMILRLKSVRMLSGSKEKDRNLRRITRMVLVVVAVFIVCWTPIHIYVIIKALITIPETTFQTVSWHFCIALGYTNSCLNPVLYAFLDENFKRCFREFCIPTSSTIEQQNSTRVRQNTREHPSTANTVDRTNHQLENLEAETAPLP

[1] = tested on: Charles River albino mice; test: Tail Flick Assay (mouse); assay type: in vivo; settings: for Tail Flick Assay activity, Subcutaneous: s.c.
From the text: (§1) The "Tail Flick Assay" and the "Hot Plate Assay" (also known as the "Hind Paw Lick Assay") use thermal pain of transient duration, and are tests in which the pain threshold of the mice or rats being analyzed has not been altered. They are useful for evaluating the ability of a compound or drug to increase the animal's pain threshold (i.e. prolong response latencies), rather than to restore normal thresholds.
(§2) The heat-induced response to the Tail Flick Assay is a reflex reaction mediated at the level of the spinal cord. The heat-induced response to the Hot Plate Assay, however, is a more complex behavior requiring integration at higher centers in the brain.
The Tail Flick Assay and the Hot Plate Assay were performed generally in the manner described by G. Woolfe et al., "The Evaluation of the Analgesic Action of Pethidine Hydrochloride (Demerol)," J. Pharmacol. Exp. Ther., 80, 300, (1944), F. D'Amour et al., "A Method for Determining Loss of Pain Sensation," J. PharmacoI. Exp. Ther., 72, 74, 300-307 (1941), and E. Drower et al., "The Antinociceptive Effects of Prostaglandin Antagonists in the Rat," European Journal of Pharmacology, 133, 249-256 (1987).
Male Charles River albino mice and male Charles River Sprague-Dawley rats weighing 20 to 30 g, and 200 to 250 g, respectively, were employed in these assays.
(§3) Tail flick response latencies (defined as the time that elapsed between the onset of a high intensity beam of light and the reflex removal of the mouse or rat's tail) and hot plate response latencies (defined as the time that elapsed between the placement of a mouse or rat on a 55 degrees Celsius surface and a lick of the hind paw) were separately, but consecutively, measured before (baseline) and again at fixed intervals after subcutaneous or intracerebroventricular administration of one of the pentapeptide compounds of the invention, the Mosberg Pentapeptide, or after the administration of saline (controls). The cut-off latencies established to prevent tissue damage in the animals are 12 seconds or 14 seconds in the mouse and rat, respectively, in the Tail Flick Assay, and 40 seconds for both species in the Hot Plate Assay. The significance of any increase in tail flick response latency or hot plate response latency is determined using analyses of variance.
One way analyses of variance were used to determine the significance of the effect of the pentapeptides on response latencies. […]
(§4) "Activity" or "Inactivity" was determined at a particular concentration of the peptide by a significant increase in tail flick or hot plate latencies above normal latencies.
(§5) The data resulting from the Tail Flick Assay and the Hot Plate Assay are presented in Tables II and III below, respectively. The numbers in parentheses are calculated ED50 values.

[2] = tested on: Charles River albino mice; test: Hot Plate Assay (mouse); assay type: in vivo
From the text: as §1, §2
The Tail Flick Assay and the Hot Plate Assay were performed generally in the manner described by G. Woolfe et al., "The Evaluation of the Analgesic Action of Pethidine Hydrochloride (Demerol)," J. Pharmacol. Exp. Ther., 80, 300, (1944), F. D'Amour et al., "A Method for Determining Loss of Pain Sensation," J. PharmacoI. […]
as §3, with “The cut-off latencies established to prevent tissue damage in the animals are 12 seconds or 14 seconds in the mouse and rat, respectively, in the Tail Flick Assay, and 40 seconds for both species in the Hot Plate Assay.” left out, “variance. […]” for “variance.”
as §4, §5

[3] = tested on: Charles River Sprague-Dawley rats; test: Tail Flick Assay (rat); assay type: in vivo; settings: s.c., at 30 mpk
From the text: as §1
The heat-induced response to the Tail Flick Assay is a reflex reaction mediated at the level of the spinal cord. The heat-induced response to the Hot Plate Assay, however, is a more complex behavior requiring integration at higher centers in the brain. […]
Tail flick response latencies (defined as the time that elapsed between the onset of a high intensity beam of light and the reflex removal of the mouse or rat's tail) and hot plate response latencies (defined as the time that elapsed between the placement of a mouse or rat on a 55 degrees Celsius surface and a lick of the hind paw) were separately, but consecutively, measured before (baseline) and again at fixed intervals after subcutaneous or intracerebroventricular administration of one of the pentapeptide compounds of the invention, the Mosberg Pentapeptide, or after the administration of saline (controls). […]

[4] = i.c.v., dose giving half the maximum possible increase in latency

Cc1cc(O)cc(C)c1C[C@H](N)C(=O)N[C@H]1C(=O)NCC(=O)N[C@@H](Cc2ccc(F)cc2)C(=O)N[C@@H](C(N)=O)C(C)(C)SSC1(C)C [Example 23, 2,6-dimethyl-L-tyrosyl-3-mercapto-D-valylglycyl-4-fluoro-L-phenylalanyl-3-mercapto-D-valinamide, cyclic (2→5)-disulfide]
rank order of potency in the Writhing Assay (CD Charles River mice; from Table I): most potent compound of the invention tested | Writhing Assay, number of mice out of ten in which peptide was active, Intragastric (CD Charles River mice): 4/10 | Writhing Assay ED50 value, Subcutaneous (CD Charles River mice): 1.9 mpk

Cc1cc(O)cc(C)c1C[C@H](N)C(=O)N[C@H]1C(=O)NCC(=O)N[C@@H](CC2CCCCC2)C(=O)N[C@@H](C(N)=O)C(C)(C)SSC1(C)C [Example 24, 2,6-dimethyl-L-tyrosyl-3-mercapto-D-valylglycyl-3-cyclohexyl-L-alanyl-3-mercapto-D-valinamide, cyclic (2→5)-disulfide]
Mean IC50 μ/δ Ratio (δ opioid receptors; ratio of mean IC50 values for μ and δ opioid receptors, above 1.0 = δ specific): 1.6 | Writhing Assay, number of mice out of ten in which peptide was active, Intragastric (CD Charles River mice): 2/10 | Writhing Assay, number of mice out of ten in which peptide was active, Subcutaneous (CD Charles River mice): 2/10

Cc1cc(O)c(C)c(C)c1CC(N)C(=O)N[C@H]1C(=O)NCC(=O)N[C@@H](Cc2ccccc2)C(=O)N[C@@H](C(=O)O)C(C)(C)SSC1(C)C (single isomer, unassigned) [Example 20 (Diastereomer A), 2,3,6-trimethyl-L-tyrosyl-3-mercapto-D-valylglycyl-L-phenylalanyl-3-mercapto-D-valine, cyclic (2→5) disulfide]
IC50 (δ opioid receptors): 24 nM | IC50 (μ opioid receptors): 24000 nM

Cc1cc(O)cc(C)c1C[C@H](N)C(=O)N[C@H]1C(=O)NCC(=O)N[C@@H](Cc2ccc(Cl)cc2)C(=O)N[C@@H](C(=O)OCc2ccccc2)C(C)(C)SSC1(C)C [Example 41, 2,6-dimethyl-L-tyrosyl-3-mercapto-D-valylglycyl-4-chloro-L-phenylalanyl-3-mercapto-D-valine, cyclic (2→5)-disulfide, phenylmethyl ester, monohydrochloride]
Writhing Assay, number of mice out of ten in which peptide was active, Intragastric (CD Charles River mice): 4/10 | Writhing Assay, number of mice out of ten in which peptide was active, Subcutaneous (CD Charles River mice): 3/10

Cc1ccc(CC(N)C(=O)N[C@H]2C(=O)NCC(=O)N[C@@H](Cc3ccccc3)C(=O)N[C@@H](C(=O)O)C(C)(C)SSC2(C)C)c(C)c1O (single isomer, unassigned) [Example 21 (Diastereomer B), 3-hydroxy-2,4-dimethyl-L-phenylalanyl-3-mercapto-D-valyglycyl-L-phenylalanyl-3-mercapto-D-valine, cyclic (2→5)-disulfide]
IC50 (δ opioid receptors): 151 nM

COC(=O)[C@@H]1NC(=O)[C@H](Cc2ccccc2)NC(=O)CNC(=O)[C@H](NC(=O)[C@@H](N)Cc2c(C)cc(O)cc2C)C(C)(C)SSC1(C)C [Example 16, -dimethyl-L-tyrosyl-3-mercapto-D-valylglycyl-L-phenylalanyl-3-mercapto-D-valine, cyclic (2→5)-disulfide, methyl ester]
Tail Flick Assay activity, Intracerebroventricular ([1]; i.c.v., at 10 μg): Active | Tail Flick Assay activity, Subcutaneous ([1]; at 30 mpk): Active | Writhing Assay, number of mice out of ten in which peptide was active, Intragastric (CD Charles River mice): 3/10 | Writhing Assay ED50 value, Subcutaneous (CD Charles River mice): 2.1 mpk | Hot Plate Assay activity, Intracerebroventricular ([2]; i.c.v., at 10 μg): Active | Hot Plate Assay activity, Subcutaneous ([2]; s.c., at 30 mpk): Active

Cc1cc(O)cc(C)c1C[C@H](N)C(=O)N[C@H]1C(=O)NCC(=O)N[C@@H](Cc2ccccc2)C(=O)N[C@@H](C(=O)O)C(C)(C)SSC1(C)C [Example 4, 2,6-dimethyl-L-tyrosyl-3-mercapto-D-valylglycyl-L-phenylalanyl-3-mercapto-D-valine, cyclic (2→5)-disulfide]
Tail Flick Assay calculated ED50 value, Intracerebroventricular [1, 4]: 0.28 µg | Tail Flick Assay activity, Subcutaneous ([1]; at 33 mpk): Active | Tail Flick Assay activity, Subcutaneous [3]: Active | Writhing Assay, number of mice out of ten in which peptide was active, Intragastric (CD Charles River mice): 3/10 | Writhing Assay ED50 value, Subcutaneous (CD Charles River mice): 2.6 mpk | Hot Plate Assay calculated ED50 value, Intracerebroventricular [2, 4]: 0.20 µg
